Measured values as given in PubChem BioAssay (NCI).
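Assay format: 96-well plates, 48-hour exposure. GI50 = concentration required for 50% inhibition of growth. TGI is the concentration that stops growth completely.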

Key:
Assay in all cases: NCI anticancer screen, dose series, 48 h
NCI-H460 lung = test system: NCI-H460 lung
HOP-62 NSCLC = test system: HOP-62 NSCLC
A498 renal = test system: A498 renal
MOLT-4 leukemia = test system: MOLT-4 leukemia
DU-145 prostate = test system: DU-145 prostate
UO-31 renal = test system: UO-31 renal
SR leukemia = test system: SR leukemia
OVCAR-4 ovarian = test system: OVCAR-4 ovarian
RXF 393 renal = test system: RXF 393 renal
U251 CNS = test system: U251 CNS
NCI-H23 lung = test system: NCI-H23 lung
NCI-H226 lung = test system: NCI-H226 lung
PC-3 prostate = test system: PC-3 prostate
SNB-75 CNS = test system: SNB-75 CNS
LOX IMVI melanoma = test system: LOX IMVI melanoma
HS 578T breast = test system: HS 578T breast
SNB-19 CNS = test system: SNB-19 CNS
SK-OV-3 ovarian = test system: SK-OV-3 ovarian
MALME-3M melanoma = test system: MALME-3M melanoma
OVCAR-3 ovarian = test system: OVCAR-3 ovarian
HT29 colon = test system: HT29 colon
M14 melanoma = test system: M14 melanoma
A549 NSCLC = test system: A549 NSCLC
SK-MEL-5 melanoma = test system: SK-MEL-5 melanoma
786-0 renal = test system: 786-0 renal
HCT-116 colon = test system: HCT-116 colon
OVCAR-5 ovarian = test system: OVCAR-5 ovarian
MDA-MB-231 breast = test system: MDA-MB-231 breast
HCT-15 colon = test system: HCT-15 colon
NCI/ADR-RES ovarian = test system: NCI/ADR-RES ovarian
BT-549 breast = test system: BT-549 breast
UACC-62 melanoma = test system: UACC-62 melanoma
ACHN renal = test system: ACHN renal
CCRF-CEM leukemia = test system: CCRF-CEM leukemia
OVCAR-8 ovarian = test system: OVCAR-8 ovarian
SK-MEL-2 melanoma = test system: SK-MEL-2 melanoma
EKVX NSCLC = test system: EKVX NSCLC
NCI-H522 lung = test system: NCI-H522 lung
UACC-257 melanoma = test system: UACC-257 melanoma
RPMI-8226 leukemia = test system: RPMI-8226 leukemia
TK-10 renal = test system: TK-10 renal
KM12 colon = test system: KM12 colon
HOP-92 NSCLC = test system: HOP-92 NSCLC
MCF7 breast = test system: MCF7 breast
SK-MEL-28 melanoma = test system: SK-MEL-28 melanoma
HL-60(TB) leukemia = test system: HL-60(TB) leukemia
CAKI-1 renal = test system: CAKI-1 renal
SN12C renal = test system: SN12C renal
SF-295 CNS = test system: SF-295 CNS
IGROV1 ovarian = test system: IGROV1 ovarian
T-47D breast = test system: T-47D breast
HCC-2998 colon = test system: HCC-2998 colon
COLO 205 colon = test system: COLO 205 colon
SF-539 CNS = test system: SF-539 CNS
K-562 leukemia = test system: K-562 leukemia
MDA-MB-435 = test system: MDA-MB-435

For `Nc1ncnc2c1c(-c1ccc(Oc3ccccc3)cc1)nn2C[C@H]1SSC[C@@H]1O`, the GI50 (NCI-H460 lung) was 44.5 nM, the TGI (NCI-H460 lung) was 206 nM and the GI50 (HOP-62 NSCLC) was 260 nM. It also gave a TGI (HOP-62 NSCLC) of 3150 nM, a GI50 (A498 renal) of 1660 nM and a TGI (A498 renal) of 4440 nM. It also gave a GI50 (MOLT-4 leukemia) of 82.5 nM, a TGI (MOLT-4 leukemia) of 361 nM and a GI50 (DU-145 prostate) of 1700 nM. The TGI (DU-145 prostate) was 10600 nM, the GI50 (UO-31 renal) was 1680 nM and the TGI (UO-31 renal) was 5700 nM. For the same compound, the GI50 (SR leukemia) was 165 nM, the TGI (SR leukemia) was 627 nM and the GI50 (OVCAR-4 ovarian) was 1440 nM. It also gave a TGI (OVCAR-4 ovarian) of 19800 nM, a GI50 (RXF 393 renal) of 1740 nM and a TGI (RXF 393 renal) of 5750 nM. For the same compound, the GI50 (U251 CNS) was 1450 nM, the TGI (U251 CNS) was 13200 nM and the GI50 (NCI-H23 lung) was 830 nM. It also gave a TGI (NCI-H23 lung) of 21400 nM, a GI50 (NCI-H226 lung) of 1730 nM and a TGI (NCI-H226 lung) of 5150 nM. The GI50 (PC-3 prostate) was 3010 nM, the TGI (PC-3 prostate) was 18200 nM and the GI50 (SNB-75 CNS) was 3020 nM. For the same compound, the TGI (SNB-75 CNS) was 14800 nM, the GI50 (LOX IMVI melanoma) was 257 nM and the TGI (LOX IMVI melanoma) was 1790 nM. For the same compound, the GI50 (HS 578T breast) was 2810 nM, the TGI (HS 578T breast) was 10600 nM and the GI50 (SNB-19 CNS) was 1400 nM. The TGI (SNB-19 CNS) was 12000 nM, the GI50 (SK-OV-3 ovarian) was 593 nM and the TGI (SK-OV-3 ovarian) was 3710 nM. The GI50 (MALME-3M melanoma) was 826 nM, the TGI (MALME-3M melanoma) was 3940 nM and the GI50 (OVCAR-3 ovarian) was 251 nM. The TGI (OVCAR-3 ovarian) was 684 nM, the GI50 (HT29 colon) was 304 nM and the TGI (HT29 colon) was 7350 nM. The GI50 (M14 melanoma) was 71 nM, the TGI (M14 melanoma) was 206 nM and the GI50 (A549 NSCLC) was 519 nM. The TGI (A549 NSCLC) was 6810 nM, the GI50 (SK-MEL-5 melanoma) was 545 nM and the TGI (SK-MEL-5 melanoma) was 1790 nM. For the same compound, the GI50 (786-0 renal) was 3090 nM, the TGI (786-0 renal) was 12000 nM and the GI50 (HCT-116 colon) was 332 nM. It also gave a TGI (HCT-116 colon) of 12300 nM, a GI50 (OVCAR-5 ovarian) of 6350 nM and a TGI (OVCAR-5 ovarian) of 41000 nM. The GI50 (MDA-MB-231 breast) was 934 nM, the TGI (MDA-MB-231 breast) was 7840 nM and the GI50 (HCT-15 colon) was 622 nM. It also gave a TGI (HCT-15 colon) of 16400 nM, a GI50 (NCI/ADR-RES ovarian) of 2730 nM and a TGI (NCI/ADR-RES ovarian) of 37100 nM. It also gave a GI50 (BT-549 breast) of 3630 nM, a TGI (BT-549 breast) of 13500 nM and a GI50 (UACC-62 melanoma) of 276 nM. It also gave a TGI (UACC-62 melanoma) of 939 nM, a GI50 (ACHN renal) of 482 nM and a TGI (ACHN renal) of 9300 nM. For the same compound, the GI50 (CCRF-CEM leukemia) was 200 nM, the TGI (CCRF-CEM leukemia) was 6280 nM and the GI50 (OVCAR-8 ovarian) was 523 nM. It also gave a TGI (OVCAR-8 ovarian) of 15900 nM, a GI50 (SK-MEL-2 melanoma) of 262 nM and a TGI (SK-MEL-2 melanoma) of 2330 nM. For the same compound, the GI50 (EKVX NSCLC) was 365 nM, the TGI (EKVX NSCLC) was 12100 nM and the GI50 (NCI-H522 lung) was 3850 nM. It also gave a TGI (NCI-H522 lung) of 14000 nM, a GI50 (UACC-257 melanoma) of 374 nM and a TGI (UACC-257 melanoma) of 16100 nM. It also gave a GI50 (RPMI-8226 leukemia) of 4200 nM, a TGI (RPMI-8226 leukemia) of 20400 nM and a GI50 (TK-10 renal) of 585 nM. It also gave a TGI (TK-10 renal) of 2540 nM, a GI50 (KM12 colon) of 242 nM and a TGI (KM12 colon) of 16400 nM. It also gave a GI50 (HOP-92 NSCLC) of 1620 nM, a TGI (HOP-92 NSCLC) of 7150 nM and a GI50 (MCF7 breast) of 289 nM. It also gave a TGI (MCF7 breast) of 4370 nM, a GI50 (SK-MEL-28 melanoma) of 147 nM and a TGI (SK-MEL-28 melanoma) of 403 nM. For the same compound, the GI50 (HL-60(TB) leukemia) was 1520 nM, the TGI (HL-60(TB) leukemia) was 4840 nM and the GI50 (CAKI-1 renal) was 1620 nM. The TGI (CAKI-1 renal) was 12700 nM, the GI50 (SN12C renal) was 1360 nM and the TGI (SN12C renal) was 13200 nM. For the same compound, the GI50 (SF-295 CNS) was 1950 nM, the TGI (SF-295 CNS) was 9900 nM and the GI50 (IGROV1 ovarian) was 1430 nM. It also gave a TGI (IGROV1 ovarian) of 8110 nM, a GI50 (T-47D breast) of 685 nM and a TGI (T-47D breast) of 3630 nM. It also gave a GI50 (HCC-2998 colon) of 3300 nM, a TGI (HCC-2998 colon) of 27600 nM and a GI50 (COLO 205 colon) of 2060 nM. The TGI (COLO 205 colon) was 9820 nM, the GI50 (SF-539 CNS) was 1410 nM and the TGI (SF-539 CNS) was 12000 nM. It also gave a GI50 (K-562 leukemia) of 342 nM, a TGI (K-562 leukemia) of 4080 nM and a GI50 (MDA-MB-435) of 162 nM. The TGI (MDA-MB-435) was 324 nM.
